Test: Radio-HPLC analysis of urine samples (metabolic stability in vivo)
Conditions: urine from healthy mice 90 min after i.v. administration
Method: 7 Dosimetry extrapolated to humans and metabolic stability of [^18F]-FNT. (A) Estimated absorbed dose (mGy/MBq) extrapolated from murine biodistribution data using ICRP103 (adult female, 60 kg). (B–D) Representative radio-HPLC profiles of [^18F]-FDS (B), [^18F]-FNT (C), and urine samples collected from healthy mice 90 min following [^18F]-FNT administration via i.v. (D).

OC[C@@H](O)[C@@H](O)[C@H](O[C@H]1O[C@H](CO)[C@@H](O)[C@H](O)[C@H]1O)[C@@H]([18F])CO [[18F]FNT, 2-deoxy-2-[18F]fluoro-D-nigeritol]
metabolic stability in vivo (urine radio-HPLC): remained intact, with no degradation observed

Reference: PMC12728616, “Regioselective Glycosylation of Fluorine-18-Labeled Sorbitol for Enhanced Bacterial Detection In Vivo Using PET” (JACS Au, 2025)
